Type in all cases: cell-based
The subject of one assay is A. Niger. The assay can be described thus: Minimum inhibitory concentration (MIC) versus A. niger. The protocol: In the instance of anti-fungal activity, detailed analysis has been carried out with a prototypical pathogen, Trichophytone mentagrophytes. The testing was conducted and illustrates the activity of the ACQA agents that are the subject of this invention. A Time Kill (D-Value) study (ASTM protocol #1891-97 Standard Guide For Determination Of A Survival Curve For Antimicrobial Agents Against Selected Microorganisms And Calculation Of A D-value And Concentration Coefficient) was carried out to screen for the antifungal activity of glycopyrrolate (3%). Testing was done to determine the speed at which the product kills a representative test organism, which was Trichophyton mentagrophytes, a representative dermatophyte-causing species. Determination of the minimum inhibitory concentration (MIC) versus A. Niger, a prototypical fungi was also initiated. The vehicle was 65% water/35% ethanol.
(§1) Additional scientific investigation was completed to verify the drug class aspects of this invention. […] Specifically, Mepenzolate bromide and Ipratropium bromide were evaluated utilizing standardized microbiological test methods for minimum inhibitory concentration (MIC) versus A. niger and C. albicans. MICs in the range of 1% were observable, confirming the antifungal activity of this class of compound. Insofar as ipratropium is used for intranasal purposes, it is apparent that the discovered property is not predicted by any known attribute of this class of drugs.

The next assay concerns C. albicans. The assay can be described thus: Minimum inhibitory concentration (MIC) versus C. albicans. The method, then: as §1
Assay [1] concerns Trichophyton mentagrophytes. Nature of the assay: Time Kill (D-Value) study, antifungal. The settings on record: glycopyrrolate 3%, vehicle 65% water/35% ethanol. An excerpt:
(§2) In Vitro and in vivo tests can be used to show the efficacy of antimicrobial products. With appropriate controls and methods In Vitro tests are applicable to all products. The time-to-kill test is used to determine the killing kinetics and activity spectrum of antimicrobials. In this example, the test was, as is usual, performed in suspension. The principle is to place the product or agent in contact with an inoculum for a specified period of time. At the end of the contact time, the mixture is inactivated by dilution into neutralizing broth. Serial dilutions in appropriate broth are performed and the number of surviving bacterial observed on solid culture media. It is general practice to test agents so that the final concentration is representative of the use concentration of the product.
In the instance of anti-fungal activity, detailed analysis has been carried out with a prototypical pathogen, Trichophytone mentagrophytes. The testing was conducted and illustrates the activity of the ACQA agents that are the subject of this invention. A Time Kill (D-Value) study (ASTM protocol #1891-97 Standard Guide For Determination Of A Survival Curve For Antimicrobial Agents Against Selected Microorganisms And Calculation Of A D-value And Concentration Coefficient) was carried out to screen for the antifungal activity of glycopyrrolate (3%). […]

For assay [2], the system named is Corynebacterium vitaeruminis. The assay can be described thus: Time Kill (D-Value) study, antibacterial. The settings on record: glycopyrrolate 3%, vehicle 65% water/35% ethanol.
Text: as §2
(§3) Similarly, In Vitro and In Vivo tests can be used to show the efficacy of antimicrobial products against bacterial species. Such a Time Kill (D-Value) study was conducted and illustrates the antibacterial activity of the ACQA agents that are the subject of this invention. In this case, the study was carried out to screen for the antibacterial activity of glycopyrrolate (3%) and triclosan (0.3%). Testing was done to determine the speed and MIC at which the product kills representative test organisms, which were Micrococcus luteous (syn ATTC 9341 changed to Kocuria rhizophila), Staphylococcos epidermidis and Corynebacterium vitaeruminis, representative odor-causing species. Once again, the vehicle was 65% water/35% ethanol.

Assay [3] has as its system Staphylococcos epidermidis. Nature of the assay: Time Kill (D-Value) study, antibacterial. The settings on record: glycopyrrolate 3%, vehicle 65% water/35% ethanol.
Text: as §2, §3

Assay [4] has as its system Micrococcus luteous (syn ATTC 9341 changed to Kocuria rhizophila). The assay can be described thus: Time Kill (D-Value) study, antibacterial. The note with it: glycopyrrolate 3%, vehicle 65% water/35% ethanol.
Text: as §2, §3

From patent US20040209954A1, “Compositions and methods for treating body malodor and fungal overgrowth in mammals” (priority 2003, published 2004) come the findings set out here.

As for `CC(C)[N+]1(C)[C@@H]2CC[C@H]1CC(OC(=O)C(CO)c1ccccc1)C2.[Br-]` (stereo partly drawn) [Ipratropium bromide], the “MIC versus A. niger” value in the assay on A. Niger is given as around 1%. In the assay on C. albicans, the “MIC versus C. albicans” value is on record as around 1%.

For `C[N+]1(C)CCCC(OC(=O)C(O)(c2ccccc2)c2ccccc2)C1` (stereo not drawn) [Mepenzolate bromide], the “MIC versus A. niger” value against A. Niger was around 1%. Moreover, the “MIC versus C. albicans” value in the assay on C. albicans is on record as around 1%.

For `C[N+]1(C)CCC(OC(=O)C(O)(c2ccccc2)C2CCCC2)C1` (stereo not drawn) [glycopyrrolate], the “MIC versus A. niger” value against A. Niger is above 0.1%. Further, the “time to antifungal effect over and above vehicle in D Value study” value in assay [1] turned out to be 24 min. The “time to kill in D Value study” value in assay [2], in assay [3] and in assay [4] was 4 min in each case.
